Data on 19 compounds can be found in PubChem BioAssay (NCI).

Assay in all cases: NCI anticancer screen, dose series, 48 h
In test [1] the test system is HL-60(TB) leukemia.
Test [2] has as its system U251 CNS.
Test [3] deals with SF-539 CNS.
The subject of test [4] is OVCAR-3 ovarian.
Test [5] concerns COLO 205 colon.
Test [6] deals with SK-OV-3 ovarian.
Test [7] deals with NCI-H522 lung.
The test system of test [8] is SW-620 colon.
Test [9] deals with UACC-257 melanoma.
Test [10] concerns M14 melanoma.

Several values for one entry are separate records, joined by “and”; a condition that tells them apart may be missing. Equal values may be shown once.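 Exposure lasted 48 hours, with cells grown in 96-well plates and compounds tested at five concentrations. GI50 = concentration required for 50% inhibition of growth. TGI denotes the concentration required for complete inhibition of growth.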

As to `CC1=NN(C(=O)c2ccc(C)cc2)C(=O)C1N=Nc1ccccc1C(=O)O` (configuration not stated), the TGI in [1], in test [2], in test [3], in [4], in [5] and in [6] was more than 100 µM in each case. The TGI in test [7], in test [8] and in test [9] was more than 100 µM in each case.
Regarding `CCOc1cc(/C=C/C(=O)CC(=O)/C=C/c2ccc(OC(=O)CNCCN(CC)CC)c(OCC)c2)ccc1OC(=O)CNCCN(CC)CC`, the GI50 in test [1] was 1.16 µM; in test [2] it was 1.27 µM; in [3], 1.38 µM; in test [4], 2.24 µM; in [5], 1.88 µM; in test [6], 5.39 µM. The GI50 is 1.8 µM in [7], 1.74 µM in [10], 1.29 µM in test [8] and 1.32 µM in [9]. Also, the TGI in test [1] turned out to be 4.25 µM; in test [2] it was 2.82 µM; in [3], 3.1 µM; in [4], 6.07 µM; in test [5] it was 4.58 µM; in test [6], 20.8 µM. Also, the TGI in test [7] is 5.13 µM; in [10] it was 4.23 µM; in [8], 3.41 µM; in test [9] it was 3.48 µM.
Regarding `CCN(CC)C(=S)SSCCO`, the GI50 in [1] was 2.17 µM; in [2] it was 16.7 µM; in test [3], 15.7 µM; in test [6] it was 73.9 µM; in test [7], 0.211 µM; in test [10], 14.2 µM. For the same compound, the GI50 in test [8] is 13.6 µM; in [9], 19.1 µM. In addition, the TGI in test [1] is 8.96 µM; in test [2], 37.5 µM; in test [3], 29.1 µM; in test [6], more than 100 µM; in test [7], 20.3 µM; in [10] it was 27.5 µM. Moreover, the results for the TGI in test [8] and in test [9] were 26.5 µM and 48.6 µM, respectively.
Take `Cc1ccc2oc3c(ccc(=O)n3C)c(=O)c2c1`: the TGI in test [1], in test [2], in test [3], in [4], in test [5] and in test [6] was more than 100 µM in each case. The TGI in [7], in test [10] and in test [8] was more than 100 µM each time.
For the compound `CO/C(=N\N=C(/c1ccccc1)C(F)(F)F)c1ccncc1`, the TGI in test [1], in test [2], in test [4], in test [5], in test [6] and in [7] was more than 100 µM each time. In addition, the TGI in test [10] was more than 100 µM.
`N/C(=N\N=C/c1cc([N+](=O)[O-])cc([N+](=O)[O-])c1O)NO`: the TGI is more than 55 µM in test [1]; more than 100 µM in test [2]; more than 100 µM in test [3]; more than 100 µM in test [4]; more than 31.6 µM in test [5]; more than 100 µM in [6]. The TGI in test [7], in [8] and in test [9] was more than 100 µM each time.
Turning to `CC(C)(CC1(C)NC(=O)NC1=O)OCc1ccccc1` (configuration not stated), the TGI in test [2], in test [4], in test [6], in [7], in test [10] and in [8] was more than 100 µM each time. Besides, the TGI in test [9] is more than 100 µM.
Regarding `Fc1ccc(C(OCCN2CC3CC2CN3)c2ccc(F)cc2)cc1` (configuration not stated), the TGI in test [1] is more than 100 µM; in test [2] it was more than 100 µM; in test [3], more than 100 µM; in test [4], more than 100 µM; in test [5], 33.5 µM; in test [6], more than 100 µM. Moreover, the TGI was more than 100 µM in test [7], more than 100 µM in test [8] and 36.6 µM in test [9].
`CCOC(=O)[C@H]1Nc2c(cccc2[N+](=O)[O-])C2c3ccccc3CC21` (some centres not stated): the TGI in [2], in test [3], in test [4], in [5], in test [7] and in test [10] was more than 100 µM throughout. For the same compound, the figures for the TGI in test [8] and in test [9] were more than 100 µM and 98.4 µM, respectively.
With `CC1CCN(c2cc(-c3cc4ccccc4o3)oc(=O)c2C#N)CC1`, the TGI in test [1], in test [2], in [3], in test [5], in [10] and in test [8] was more than 100 µM each time. The TGI in [9] was more than 100 µM.
For the compound `O=c1[nH]c(=S)[nH]c2c(C3OC(CO)C(O)C3O)nsc12` (configuration not stated), the TGI in test [1], in test [2], in [3], in [4], in [5] and in test [6] was more than 100 µM in each case. Also, the TGI in [10], in [8] and in test [9] was more than 100 µM in each case.
Regarding `c1csc(C(NC2=NCCO2)C2CC2)c1` (configuration not stated), the TGI in [2], in test [3], in test [5], in test [6], in test [7] and in test [8] was more than 100 µM throughout.
For `COc1cccc(/C=N/[N-]C(N)=O)c1[O-].[OH3+].[Pd+2]`, the TGI in test [2], in [3], in [4], in test [5], in test [6] and in [7] was more than 100 µM in each case. Besides, the TGI in [10], in [8] and in test [9] was more than 100 µM each time.
Regarding `CCN1C(=O)N2C(OC)c3ccccc3C(Br)C2(OC)C1=O` (configuration not stated), the TGI in test [1], in [2], in test [4], in [5], in [6] and in [7] was more than 100 µM in each case. Moreover, the TGI in [10] and in test [8] was more than 100 µM in each case.
Turning to `CC(=O)Nc1cc(/C=C\C(=O)N2CC(CCl)c3c2cc(N)c2ccccc32)n(C)n1` (configuration not stated), the TGI was 0.0126 µM in [1]; 1.23 µM and 3.23 µM in [2]; 0.0214 µM in [3]; more than 100 µM in [4]; 0.0901 µM in test [5]; more than 100 µM in [8]. The TGI in [9] worked out at 0.0394 µM. The GI50 in [6] was 0.0311 µM; in [10], 0.0138 µM.
Consider `Clc1ccc(-c2nnc(-c3nsc4ccccc34)o2)cc1`, for which the TGI in test [2] is 33.5 µM; in test [3], 48.9 µM; in test [4] it was 32 µM; in test [5], more than 100 µM; in test [10], more than 100 µM; in [8], more than 100 µM. This compound also displayed a TGI in test [9] of more than 100 µM.
Turning to `N=C(N)c1ccc(N=Nc2c(O)ccc3cc(O)ccc23)cc1`, the TGI in test [1], in test [2], in [3], in test [4], in test [5] and in test [6] was more than 100 µM throughout. Further, the TGI in [7], in test [10], in [8] and in test [9] was more than 100 µM each time.
`O=S(=O)(c1ccc2ccccc2c1)N1CCN(S(=O)(=O)c2ccc3ccccc3c2)CC1`: the TGI in test [1], in test [2], in test [4], in test [5], in test [6] and in test [7] was more than 100 µM in each case. The TGI in test [10], in test [8] and in [9] was more than 100 µM in each case.
As for `O=C(/C=C\c1ccc(/C=C/C(=O)Nc2cccc(C3=NCCCN3)c2)cc1)Nc1cccc(C2=NCCCN2)c1`, the TGI in test [1], in test [2], in [3], in [4], in test [5] and in [6] was more than 100 µM in each case. Further, the TGI in test [7], in [8] and in [9] was more than 100 µM throughout.
